No end group written: not given here.

What is called EC50 is the concentration that produces a half-maximal response. Read a high EC50 as lower potency in that assay. A word on the Emax: it is the greatest response seen or fitted, relative to the assay's reference.

In assay [1] the target is T1, NPFFR2 T220A (Homo sapiens, UniProt Q9Y5X5, T322A).
T1 construct: expressed in transfected cells; host or cells: HEK293T (described for NPFFR1 only)
The assay is described as follows: GloSensor cAMP accumulation assay, NPFFR2 T220A. The format is cell-based. Conditions: Gi signaling, three independent experiments in triplicates. In general terms: Changes in cAMP serve as a functional read-out for many G protein-coupled receptors.

The target in assay [2] is T2, NPFFR2 (WT) (Homo sapiens, UniProt Q9Y5X5).
T2 construct: expressed in transfected cells; host or cells: HEK293T (described for NPFFR1 only)
T2 sequence (Q9Y5X5 103-522): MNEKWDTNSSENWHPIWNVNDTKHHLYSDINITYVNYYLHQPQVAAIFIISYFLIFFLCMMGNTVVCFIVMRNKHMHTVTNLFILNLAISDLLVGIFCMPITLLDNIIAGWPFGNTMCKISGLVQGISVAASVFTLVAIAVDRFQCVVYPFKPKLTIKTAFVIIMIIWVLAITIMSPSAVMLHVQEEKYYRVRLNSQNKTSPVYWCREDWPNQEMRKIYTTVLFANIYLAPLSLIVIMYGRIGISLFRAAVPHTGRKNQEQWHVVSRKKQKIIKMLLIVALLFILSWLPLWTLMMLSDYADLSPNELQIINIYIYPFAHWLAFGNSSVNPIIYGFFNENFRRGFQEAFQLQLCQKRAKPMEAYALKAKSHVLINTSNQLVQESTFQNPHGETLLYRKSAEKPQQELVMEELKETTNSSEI
Description: GloSensor cAMP accumulation assay, WT NPFFR2 (Gi signaling). The format is cell-based. Conditions: WT NPFFR2 (reference, 100 %WT), three independent experiments in triplicates.

Assay [3] concerns NPFFR1 / NPFFR2. Conditions: NPFFR1 vs NPFFR2; ref Quillet et al., 2016; cited from earlier work. The source says: NPFFR1 primarily couples to inhibitory Gi/o proteins and regulates di ...

T1 sequence (Q9Y5X5 103-522 T322A): as the sequence (Q9Y5X5 103-522) above, with T220A counted along it

Take `CC(C)C[C@H](NC(=O)[C@H](CC(N)=O)NC(=O)[C@@H]1CCCN1C(=O)[C@@H](N)C(C)C)C(=O)N1CCC[C@H]1C(=O)N[C@@H](CCC(N)=O)C(=O)N[C@@H](CCCNC(=N)N)C(=O)N[C@@H](Cc1ccccc1)C(N)=O` [RFRP-3, RF-amide related peptide-3]: the EC50 in assay [1] was over 30.2 µM. In addition, in assay [2], the Emax came to 100%.

Regarding “Neuropeptide AF (AGEGLNSQFWSLAAPQRF; ends and bridges not checked; UniProt O15130 93-110, looked up) [NPAF, peptide derived from pro-NPFFA]”, in assay [3], the receptor preference result is “prefer binding to NPFFR2”.

(Values after article PMC13107563 (Protein & Cell, 2025).)
